Measured values from patent US20150010928A1, “MEANS AND METHODS FOR ASSESSING AN ENDOCRINE DISEASE OR DISORDER” (priority 2012, published 2015).
Marks after values point to notes of the source that are not given here.

Tested on: female rats
Assay: Plasma metabolite profiling (GC-MS, LC-MS, SPE-LC-MS) in female rats dosed once daily over 28 days (OECD 407)
Assay type: in vivo, rat
Conditions: high dose
Summary of the method: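 Polar and lipid fractions profiled by GC-MS and LC-MS/MRM, steroids by online SPE-LC-MS; pool-normalized data compared to controls by Welch test as treatment ratios and p-values.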

SMILES: C[C@]12CCC(=O)C=C1CC[C@@H]1[C@@H]2CC[C@@]2(C)[C@H]1CC[C@]2(C)O [17-alpha-Methyltestosterone]
- 3-Hydroxybutyrate (f7, female rats, Table 15a): 1.5*
- DAG (C18:1,C18:2) (f7, female rats, Table 15a): 3.01 *
- Glutamate (f7, female rats, Table 15a): 1.56 *
- Glycine (f7, female rats, Table 15a): 1.28 *
- Phosphatidylcholine (C16:0,C20:5) (f7, female rats, Table 15a): 1.22 *
- TAG (C16:0,C16:1) (f7, female rats, Table 15a): 3.85 *
- TAG (C16:0,C18:1,C18:3) (f7, female rats, Table 15a): 8.68 *
- TAG (C16:0,C18:2) (f7, female rats, Table 15a): 4.63 *
- TAG (C18:1,C18:2) (f7, female rats, Table 15a): 5.83 *
- TAG (C18:2,C18:2) (f7, female rats, Table 15a): 4.67 *
- TAG (C18:3, C18:2, C18:1) (f7, female rats, Table 15a): 6.36*
- TAG (DAG-Fragment) (f7, female rats, Table 15a): 5.82 *
- TAG No 059 (f7, female rats, Table 15a): 3.27 *
- Threonic acid (f7, female rats, Table 15a): 1.65 *
- trans-4-Hydroxyproline (f7, female rats, Table 15a): 1.4 *
- Arginine (f7, female rats, Table 15b): 0.69 *
- Campesterol (f7, female rats, Table 15b): 0.65 *
- Ceramide (d18:1,C24:0) (f7, female rats, Table 15b): 0.79 *
- Lactate (f7, female rats, Table 15b): 0.47 *
- Lysine (f7, female rats, Table 15b): 0.49 *
- Metanephrine (f7, female rats, Table 15b): 0.78 *
- Normetanephrine (f7, female rats, Table 15b): 0.61 *
- Phosphatidylcholine (C16:0,C20:5) (f7, female rats, Table 15b): 1.22
- Phosphatidylcholine (C16:0,C22:6) (f7, female rats, Table 15b): 0.86 *
- Phosphatidylcholine (C18:0, C20:3) (f7, female rats, Table 15b): 0.69 *
- Phosphatidylcholine (C18:0,C18:1) (f7, female rats, Table 15b): 0.78 *
- Pyruvate (f7, female rats, Table 15b): 0.52 *
- Sphingomyelin (d18:1,C23:0) (f7, female rats, Table 15b): 0.56 *
- Sphingomyelin (d18:1,C24:0) (f7, female rats, Table 15b): 0.67 *
- Urea (f7, female rats, Table 15b): 0.72 *
- 3-Hydroxybutyrate (f14, female rats, Table 15a): 2.03 *
- DAG (C18:1,C18:2) (f14, female rats, Table 15a): 3.17 *
- Glutamate (f14, female rats, Table 15a): 1.43 *
- Glycine (f14, female rats, Table 15a): 1.15 *
- Phosphatidylcholine (C16:0,C20:5) (f14, female rats, Table 15a): 1.15 *
- TAG (C16:0,C16:1) (f14, female rats, Table 15a): 2.59 *
- TAG (C16:0,C18:1,C18:3) (f14, female rats, Table 15a): 7.54 *
- TAG (C16:0,C18:2) (f14, female rats, Table 15a): 4.63 *
- TAG (C18:1,C18:2) (f14, female rats, Table 15a): 4.5 *
- TAG (C18:2,C18:2) (f14, female rats, Table 15a): 5.09 *
- TAG (C18:3, C18:2, C18:1) (f14, female rats, Table 15a): 5.29 *
- TAG (DAG-Fragment) (f14, female rats, Table 15a): 5.43 *
- TAG No 059 (f14, female rats, Table 15a): 4.08 *
- Threonic acid (f14, female rats, Table 15a): 2.84 *
- trans-4-Hydroxyproline (f14, female rats, Table 15a): 1.56 *
- Arginine (f14, female rats, Table 15b): 0.67 *
- Campesterol (f14, female rats, Table 15b): 0.62 *
- Ceramide (d18:1,C24:0) (f14, female rats, Table 15b): 0.7 *
- Lactate (f14, female rats, Table 15b): 0.34 *
- Lysine (f14, female rats, Table 15b): 0.49 *
- Metanephrine (f14, female rats, Table 15b): 0.66 *
- Normetanephrine (f14, female rats, Table 15b): 0.65 *
- Phosphatidylcholine (C16:0,C20:5) (f14, female rats, Table 15b): 1.15
- Phosphatidylcholine (C16:0,C22:6) (f14, female rats, Table 15b): 0.78 *
- Phosphatidylcholine (C18:0, C20:3) (f14, female rats, Table 15b): 0.76 *
- Phosphatidylcholine (C18:0,C18:1) (f14, female rats, Table 15b): 0.94 *
- Pyruvate (f14, female rats, Table 15b): 0.35 *
- Sphingomyelin (d18:1,C23:0) (f14, female rats, Table 15b): 0.52 *
- Sphingomyelin (d18:1,C24:0) (f14, female rats, Table 15b): 0.6 *
- Urea (f14, female rats, Table 15b): 0.63 *
- 3-Hydroxybutyrate (f28, female rats, Table 15a): 1.49 *
- DAG (C18:1,C18:2) (f28, female rats, Table 15a): 2.97 *
- Glutamate (f28, female rats, Table 15a): 1.58 *
- Glycine (f28, female rats, Table 15a): 1.29 *
- Phosphatidylcholine (C16:0,C20:5) (f28, female rats, Table 15a): 1.17*
- TAG (C16:0,C16:1) (f28, female rats, Table 15a): 2.04 *
- TAG (C16:0,C18:1,C18:3) (f28, female rats, Table 15a): 9.21*
- TAG (C16:0,C18:2) (f28, female rats, Table 15a): 5.09 *
- TAG (C18:1,C18:2) (f28, female rats, Table 15a): 5.32 *
- TAG (C18:2,C18:2) (f28, female rats, Table 15a): 8.15 *
- TAG (C18:3, C18:2, C18:1) (f28, female rats, Table 15a): 7.3*
- TAG (DAG-Fragment) (f28, female rats, Table 15a): 6.9 *
- TAG No 059 (f28, female rats, Table 15a): 5.2 *
- Threonic acid (f28, female rats, Table 15a): 2.29 *
- trans-4-Hydroxyproline (f28, female rats, Table 15a): 1.61 *
- Arginine (f28, female rats, Table 15b): 0.59 *
- Campesterol (f28, female rats, Table 15b): 0.66 *
- Ceramide (d18:1,C24:0) (f28, female rats, Table 15b): 0.52 *
- Lactate (f28, female rats, Table 15b): 0.52 *
- Lysine (f28, female rats, Table 15b): 0.52 *
- Metanephrine (f28, female rats, Table 15b): 0.81 *
- Normetanephrine (f28, female rats, Table 15b): 0.66 *
- Phosphatidylcholine (C16:0,C20:5) (f28, female rats, Table 15b): 1.17
- Phosphatidylcholine (C16:0,C22:6) (f28, female rats, Table 15b): 0.79 *
- Phosphatidylcholine (C18:0, C20:3) (f28, female rats, Table 15b): 0.68 *
- Phosphatidylcholine (C18:0,C18:1) (f28, female rats, Table 15b): 0.81 *
- Pyruvate (f28, female rats, Table 15b): 0.4 *
- Sphingomyelin (d18:1,C23:0) (f28, female rats, Table 15b): 0.42 *
- Sphingomyelin (d18:1,C24:0) (f28, female rats, Table 15b): 0.52 *
- Urea (f28, female rats, Table 15b): 0.8*
